# Data reported in ChEMBL document CHEMBL5042487, “Design, synthesis, and biological activity evaluation of 2-(benzo[b]thiophen-2-yl)-4-phenyl-4,5-dihydrooxazole derivatives as broad-spectrum antifungal agents” (Eur J Med Chem, 2022).
# Columns and labels:
# Candida tropicalis = assay: Antifungal activity against Candida tropicalis GIM 2.183 assessed as inhibition of fungal growth by NCCLS protocol based method; assay type: functional
# Candida albicans [1] = assay: Antifungal activity against Candida albicans GIM 2.194 assessed as inhibition of fungal growth by NCCLS protocol based method; assay type: functional
# Candida albicans [2] = assay: Antifungal activity against Candida albicans SC5314 assessed as inhibition of fungal growth by NCCLS protocol based method; assay type: functional
# Aspergillus fumigatus = assay: Antifungal activity against Aspergillus fumigatus CGMCC 3.7795 assessed as inhibition of fungal growth by NCCLS protocol based method; assay type: functional
# Cryptococcus neoformans = assay: Antifungal activity against Cryptococcus neoformans GIM 2.209 assessed as inhibition of fungal growth by NCCLS protocol based method; assay type: functional
# Candida albicans [3] = assay: Antifungal activity against fluconazole resistant Candida albicans CaR assessed as inhibition of fungal growth by NCCLS protocol based method; assay type: functional
# Candida albicans [4] = assay: Antifungal activity against fluconazole and itraconazole resistant Candida albicans 17# assessed as inhibition of fungal growth by NCCLS protocol based method; assay type: functional
# [5] = Metabolic stability in human liver microsomes assessed as half life at 100 uM pre-incubated for 10 mins followed by NADPH-regenerating system and measured upto 60 mins by LC-MS/MS analysis; assay type: ADME, Microsome; settings: time <=70 min
# [6] = Stability in human plasma assessed as compound remaining incubated for 60 mins by LC-MS/MS analysis; assay type: ADME, cell-free; settings: read-out: Stability
# [7] = Stability in human plasma assessed as compound remaining incubated for 120 mins by LC-MS/MS analysis; assay type: ADME, cell-free; settings: 2 h
# [8] = Stability in human plasma assessed as half life incubated for 60 mins by LC-MS/MS analysis; assay type: ADME, cell-free
SMILES,MIC (Candida tropicalis) [µg/mL],MIC (Candida albicans [1]) [µg/mL],MIC (Candida albicans [2]) [µg/mL],MIC (Aspergillus fumigatus) [µg/mL],MIC (Cryptococcus neoformans) [µg/mL],MIC (Candida albicans [3]) [µg/mL],MIC (Candida albicans [4]) [µg/mL],half-life at 100 µM [5] [min],remaining at 1 h [6] [%],Stability [7] [%],half-life [8] [min]
Clc1cccc(C2(Cn3cncn3)COC(c3cc4ccc(Cl)cc4s3)=N2)c1 (stereo unspecified),0.125,0.06,0.06,16,0.5,,,,,,
Fc1cccc(C2(Cn3cncn3)COC(c3cc4ccc(Br)cc4s3)=N2)c1 (stereo unspecified),< 0.03,< 0.03,< 0.03,2,0.25,> 64,> 64,,,,
c1ccc(C2(Cn3cncn3)COC(c3ccc(-c4ccoc4)cc3)=N2)cc1 (stereo unspecified),< 0.125,0.5,< 0.03,0.5,0.25,,,,,,
Fc1ccc2sc(C3=NC(Cn4cncn4)(c4ccccc4)CO3)cc2c1 (stereo unspecified),> 16,> 16,1,1,16,,,,,,
CCC(C)n1ncn(-c2ccc(N3CCN(c4ccc(OCC5COC(Cn6cncn6)(c6ccc(Cl)cc6Cl)O5)cc4)CC3)cc2)c1=O (stereo unspecified) [ITRACONAZOLE],< 0.03,< 0.03,< 0.03,< 0.125,< 0.125,,,,,,
c1ccc(-c2cc(C3=NC(Cn4cncn4)(c4ccccc4)CO3)no2)cc1 (stereo unspecified),> 64,> 16,> 16,2,> 64,,,,,,
Clc1cccc(C2(Cn3cncn3)COC(c3cc4ccc(Br)cc4s3)=N2)c1 (stereo unspecified),0.125,0.06,0.06,16,0.5,,,,,,
c1ccc(C2(Cn3cncn3)COC(c3ccc4ccccc4c3)=N2)cc1 (stereo unspecified),> 64,> 16,> 16,4,1,,,,,,
c1ccc(-c2ccc(C3=NC(Cn4cncn4)(c4ccccc4)CO3)s2)cc1 (stereo unspecified),> 64,> 16,> 16,4,0.5,,,,,,
Fc1cc(F)cc(C2(Cn3cncn3)COC(c3cc4ccc(Cl)cc4s3)=N2)c1 (stereo unspecified),0.125,0.06,0.06,> 64,0.25,,,,,,
Brc1ccc2cc(C3=NC(Cn4cncn4)(c4ccccc4)CO3)sc2c1 (stereo unspecified),0.06,0.06,< 0.03,0.5,0.25,,,,,,
Fc1cc(F)cc(C2(Cn3cncn3)COC(c3cc4ccc(Br)cc4s3)=N2)c1 (stereo unspecified),0.125,0.06,0.06,> 64,0.25,,,,,,
N#Cc1ccc2cc(C3=NC(Cn4cncn4)(c4ccccc4)CO3)sc2c1 (stereo unspecified),> 16,> 16,> 16,> 64,> 64,,,,,,
c1ccc(C2(Cn3cncn3)COC(c3cc4ccccc4o3)=N2)cc1 (stereo unspecified),> 64,> 16,> 16,8,2,,,,,,
FC(F)(F)c1ccc2sc(C3=NC(Cn4cncn4)(c4ccccc4)CO3)cc2c1 (stereo unspecified),> 16,> 16,0.5,> 64,> 64,,,,,,
c1ccc(C2(Cn3cncn3)COC(c3nc4ccccc4s3)=N2)cc1 (stereo unspecified),> 64,> 16,> 16,> 64,> 64,,,,,,
Fc1ccc(C2(Cn3cncn3)COC(c3ccc(-c4ccoc4)cc3)=N2)cc1 (stereo unspecified),0.125,< 0.03,< 0.03,0.25,0.25,,,18.6,,,
N#Cc1ccc2sc(C3=NC(Cn4cncn4)(c4ccccc4)CO3)cc2c1 (stereo unspecified),> 16,> 16,> 16,> 64,> 64,,,,,,
CC(=O)N1CCN(c2ccc(C3=NC(Cn4cncn4)(c4ccccc4)CO3)cc2)CC1 (stereo unspecified),> 64,> 16,> 16,> 64,> 64,,,,,,
O=C(Nc1ccc(C2=NC(Cn3cncn3)(c3ccccc3)CO2)cc1)c1ccccc1 (stereo unspecified),> 64,8,> 16,> 64,> 64,,,,,,

SMILES,MIC (Candida tropicalis) [µg/mL],MIC (Candida albicans [1]) [µg/mL],MIC (Candida albicans [2]) [µg/mL],MIC (Aspergillus fumigatus) [µg/mL],MIC (Cryptococcus neoformans) [µg/mL],MIC (Candida albicans [3]) [µg/mL],MIC (Candida albicans [4]) [µg/mL],half-life at 100 µM [5] [min],remaining at 1 h [6] [%],Stability [7] [%],half-life [8] [min]
FC(F)(F)Oc1ccc2sc(C3=NC(Cn4cncn4)(c4ccccc4)CO3)cc2c1 (stereo unspecified),0.25,0.06,< 0.03,> 64,> 64,,,,,,
Clc1ccc2sc(C3=NC(Cn4cncn4)(c4ccccc4)CO3)cc2c1 (stereo unspecified),> 16,> 16,0.5,32,> 64,,,,,,
Fc1ccc(C2(Cn3cncn3)COC(c3ccc(-c4ccccc4F)cc3)=N2)cc1 (stereo unspecified),0.06,< 0.03,< 0.03,> 64,> 64,,,,,,
FC(F)(F)Oc1ccc2cc(C3=NC(Cn4cncn4)(c4ccccc4)CO3)sc2c1 (stereo unspecified),> 16,> 16,0.06,> 64,> 64,,,,,,
Clc1ccc(C2(Cn3cncn3)COC(c3cc4ccc(Br)cc4s3)=N2)cc1 (stereo unspecified),0.06,< 0.03,< 0.03,1,0.25,0.5,> 64,,,,
Fc1ccc2cc(C3=NC(Cn4cncn4)(c4ccccc4)CO3)sc2c1 (stereo unspecified),4,1,0.25,2,4,,,,,,
Brc1ccc2sc(C3=NC(Cn4cncn4)(c4ccccc4)CO3)cc2c1 (stereo unspecified),> 16,> 16,> 16,> 64,> 64,,,,,,
OC(Cn1cncn1)(Cn1cncn1)c1ccc(F)cc1F [FLUCONAZOLE],1,1,0.5,> 64,4,> 64,> 64,,86.7,88.2,> 289
c1ccc(C2=NC(Cn3cncn3)(c3ccccc3)CO2)cc1 (stereo unspecified),> 64,> 16,> 16,> 64,> 64,,,,,,
Fc1ccc(C2(Cn3cncn3)COC(c3cc4ccc(F)cc4s3)=N2)cc1 (stereo unspecified),0.25,0.5,0.125,1,2,> 64,> 64,,,,
Fc1ccc(C2(Cn3cncn3)COC(c3cc4ccc(Cl)cc4s3)=N2)c(F)c1 (stereo unspecified),0.06,< 0.03,0.06,> 64,0.25,,,,,,
c1ccc(C2(Cn3cncn3)COC(c3cc4ccccc4s3)=N2)cc1 (stereo unspecified),2,1,0.25,1,0.25,,,,,,
Fc1ccc(C2(Cn3cncn3)COC(c3cc4ccc(Br)cc4s3)=N2)c(F)c1 (stereo unspecified),< 0.03,< 0.03,< 0.03,> 64,0.5,,,,,,
Fc1ccc(C2(Cn3cncn3)COC(c3cc4ccc(Br)cc4s3)=N2)cc1 (stereo unspecified),0.13,0.06,< 0.03,2,1,0.5,> 64,,,,
c1ccc(-c2nnc(-c3ccc(C4=NC(Cn5cncn5)(c5ccccc5)CO4)cc3)o2)cc1 (stereo unspecified),> 64,> 16,> 16,> 64,> 64,,,,,,
Fc1cccc(C2(Cn3cncn3)COC(c3cc4ccc(Cl)cc4s3)=N2)c1 (stereo unspecified),4,< 0.03,< 0.03,1,0.25,> 64,> 64,,,,
FC(F)(F)c1ccc2cc(C3=NC(Cn4cncn4)(c4ccccc4)CO3)sc2c1 (stereo unspecified),8,> 16,0.25,> 64,16,,,,,,
c1ccc(COc2ccc(C3=NC(Cn4cncn4)(c4ccccc4)CO3)cc2)cc1 (stereo unspecified),> 64,> 16,> 16,> 64,> 64,,,,,,
Clc1ccc2cc(C3=NC(Cn4cncn4)(c4ccccc4)CO3)sc2c1 (stereo unspecified),0.06,0.06,< 0.03,0.5,0.25,,,,,,
